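In this assay, cells in 96-well plates receive the compound at five concentrations for 48 hours. Endpoints are linearly interpolated between the surrounding concentrations. TGI denotes the concentration required for complete inhibition of growth.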
Columns and labels:
Experiment in all cases: DTP human tumour cell line panel, 48 h
786-0 renal = system: 786-0 renal
A549 NSCLC = system: A549 NSCLC
ACHN renal = system: ACHN renal
BT-549 breast = system: BT-549 breast
CAKI-1 renal = system: CAKI-1 renal
CCRF-CEM leukemia = system: CCRF-CEM leukemia
COLO 205 colon = system: COLO 205 colon
DU-145 prostate = system: DU-145 prostate
EKVX NSCLC = system: EKVX NSCLC
HCC-2998 colon = system: HCC-2998 colon
HCT-15 colon = system: HCT-15 colon
HL-60(TB) leukemia = system: HL-60(TB) leukemia
HOP-62 NSCLC = system: HOP-62 NSCLC
HOP-92 NSCLC = system: HOP-92 NSCLC
HS 578T breast = system: HS 578T breast
HT29 colon = system: HT29 colon
IGROV1 ovarian = system: IGROV1 ovarian
K-562 leukemia = system: K-562 leukemia
KM12 colon = system: KM12 colon
LOX IMVI melanoma = system: LOX IMVI melanoma
M14 melanoma = system: M14 melanoma
MALME-3M melanoma = system: MALME-3M melanoma
MCF7 breast = system: MCF7 breast
MDA-MB-231 breast = system: MDA-MB-231 breast
MDA-MB-435 = system: MDA-MB-435
MDA-N = system: MDA-N
MOLT-4 leukemia = system: MOLT-4 leukemia
NCI-H226 lung = system: NCI-H226 lung
NCI-H23 lung = system: NCI-H23 lung
NCI-H460 lung = system: NCI-H460 lung
NCI-H522 lung = system: NCI-H522 lung
NCI/ADR-RES ovarian = system: NCI/ADR-RES ovarian
OVCAR-3 ovarian = system: OVCAR-3 ovarian
OVCAR-4 ovarian = system: OVCAR-4 ovarian
OVCAR-5 ovarian = system: OVCAR-5 ovarian
OVCAR-8 ovarian = system: OVCAR-8 ovarian
PC-3 prostate = system: PC-3 prostate
RPMI-8226 leukemia = system: RPMI-8226 leukemia
RXF 393 renal = system: RXF 393 renal
SF-268 CNS = system: SF-268 CNS
SF-295 CNS = system: SF-295 CNS
SF-539 CNS = system: SF-539 CNS
SK-MEL-28 melanoma = system: SK-MEL-28 melanoma
SK-MEL-5 melanoma = system: SK-MEL-5 melanoma
SK-OV-3 ovarian = system: SK-OV-3 ovarian
SN12C renal = system: SN12C renal
SNB-19 CNS = system: SNB-19 CNS
SNB-75 CNS = system: SNB-75 CNS
SR leukemia = system: SR leukemia
SW-620 colon = system: SW-620 colon
T-47D breast = system: T-47D breast
TK-10 renal = system: TK-10 renal
U251 CNS = system: U251 CNS
UACC-257 melanoma = system: UACC-257 melanoma
UACC-62 melanoma = system: UACC-62 melanoma
UO-31 renal = system: UO-31 renal
A498 renal = system: A498 renal
HCT-116 colon = system: HCT-116 colon
SK-MEL-2 melanoma = system: SK-MEL-2 melanoma

With `COC(=O)[C@@]12CN(C)[C@@H](C(C)(C)C)N1C(=O)OC2c1ccccc1` (some centres not stated) the TGI (786-0 renal) was greater than 100 µM, the TGI (A549 NSCLC) was greater than 100 µM and the TGI (ACHN renal) was greater than 100 µM. It also gave a TGI (BT-549 breast) greater than 100 µM, a TGI (CAKI-1 renal) greater than 100 µM and a TGI (CCRF-CEM leukemia) greater than 100 µM. For the same compound, the TGI (COLO 205 colon) was greater than 100 µM, the TGI (DU-145 prostate) was greater than 100 µM and the TGI (EKVX NSCLC) was greater than 100 µM. The TGI (HCC-2998 colon) was greater than 100 µM, the TGI (HCT-15 colon) was greater than 100 µM and the TGI (HL-60(TB) leukemia) was greater than 100 µM. It also gave a TGI (HOP-62 NSCLC) greater than 100 µM, a TGI (HOP-92 NSCLC) greater than 100 µM and a TGI (HS 578T breast) greater than 100 µM. For the same compound, the TGI (HT29 colon) was greater than 100 µM, the TGI (IGROV1 ovarian) was greater than 100 µM and the TGI (K-562 leukemia) was greater than 100 µM. For the same compound, the TGI (KM12 colon) was greater than 100 µM, the TGI (LOX IMVI melanoma) was greater than 100 µM and the TGI (M14 melanoma) was greater than 100 µM. The TGI (MALME-3M melanoma) was greater than 100 µM, the TGI (MCF7 breast) was greater than 100 µM and the TGI (MDA-MB-231 breast) was greater than 100 µM. The TGI (MDA-MB-435) was greater than 100 µM, the TGI (MDA-N) was greater than 100 µM and the TGI (MOLT-4 leukemia) was greater than 100 µM. The TGI (NCI-H226 lung) was greater than 100 µM, the TGI (NCI-H23 lung) was greater than 100 µM and the TGI (NCI-H460 lung) was greater than 100 µM. For the same compound, the TGI (NCI-H522 lung) was greater than 100 µM, the TGI (NCI/ADR-RES ovarian) was greater than 100 µM and the TGI (OVCAR-3 ovarian) was greater than 100 µM. For the same compound, the TGI (OVCAR-4 ovarian) was greater than 100 µM, the TGI (OVCAR-5 ovarian) was greater than 100 µM and the TGI (OVCAR-8 ovarian) was greater than 100 µM. It also gave a TGI (PC-3 prostate) greater than 100 µM, a TGI (RPMI-8226 leukemia) greater than 100 µM and a TGI (RXF 393 renal) greater than 100 µM. It also gave a TGI (SF-268 CNS) greater than 100 µM, a TGI (SF-295 CNS) greater than 100 µM and a TGI (SF-539 CNS) greater than 100 µM. It also gave a TGI (SK-MEL-28 melanoma) greater than 100 µM, a TGI (SK-MEL-5 melanoma) greater than 100 µM and a TGI (SK-OV-3 ovarian) greater than 100 µM. For the same compound, the TGI (SN12C renal) was greater than 100 µM, the TGI (SNB-19 CNS) was greater than 100 µM and the TGI (SNB-75 CNS) was greater than 100 µM. It also gave a TGI (SR leukemia) greater than 100 µM, a TGI (SW-620 colon) greater than 100 µM and a TGI (T-47D breast) greater than 100 µM. For the same compound, the TGI (TK-10 renal) was greater than 100 µM, the TGI (U251 CNS) was greater than 100 µM and the TGI (UACC-257 melanoma) was greater than 100 µM. It also gave a TGI (UACC-62 melanoma) greater than 100 µM and a TGI (UO-31 renal) greater than 100 µM.
With `COC(=O)/C=C\[C@H]1[C@H](C)N1S(=O)(=O)c1ccc(C)cc1` (some centres not stated) the TGI (786-0 renal) was greater than 100 µM, the TGI (A498 renal) was greater than 100 µM and the TGI (A549 NSCLC) was greater than 100 µM. For the same compound, the TGI (ACHN renal) was greater than 100 µM, the TGI (BT-549 breast) was greater than 100 µM and the TGI (CAKI-1 renal) was greater than 100 µM. For the same compound, the TGI (CCRF-CEM leukemia) was greater than 100 µM, the TGI (COLO 205 colon) was greater than 100 µM and the TGI (DU-145 prostate) was greater than 100 µM. For the same compound, the TGI (EKVX NSCLC) was greater than 100 µM, the TGI (HCC-2998 colon) was greater than 100 µM and the TGI (HCT-116 colon) was greater than 100 µM. It also gave a TGI (HCT-15 colon) greater than 100 µM, a TGI (HL-60(TB) leukemia) greater than 100 µM and a TGI (HOP-62 NSCLC) greater than 100 µM. It also gave a TGI (HS 578T breast) greater than 100 µM, a TGI (HT29 colon) greater than 100 µM and a TGI (IGROV1 ovarian) greater than 100 µM. The TGI (K-562 leukemia) was greater than 100 µM, the TGI (KM12 colon) was greater than 100 µM and the TGI (LOX IMVI melanoma) was greater than 100 µM. For the same compound, the TGI (M14 melanoma) was greater than 100 µM, the TGI (MALME-3M melanoma) was greater than 100 µM and the TGI (MCF7 breast) was greater than 100 µM. For the same compound, the TGI (MDA-MB-231 breast) was greater than 100 µM, the TGI (MDA-MB-435) was greater than 100 µM and the TGI (MDA-N) was greater than 100 µM. The TGI (MOLT-4 leukemia) was greater than 100 µM, the TGI (NCI-H226 lung) was greater than 100 µM and the TGI (NCI-H23 lung) was greater than 100 µM. The TGI (NCI-H460 lung) was greater than 100 µM, the TGI (NCI-H522 lung) was 46 µM and the TGI (NCI/ADR-RES ovarian) was greater than 100 µM. The TGI (OVCAR-3 ovarian) was greater than 100 µM, the TGI (OVCAR-4 ovarian) was greater than 100 µM and the TGI (OVCAR-5 ovarian) was greater than 100 µM. The TGI (OVCAR-8 ovarian) was greater than 100 µM, the TGI (PC-3 prostate) was greater than 100 µM and the TGI (RPMI-8226 leukemia) was greater than 100 µM. It also gave a TGI (RXF 393 renal) greater than 100 µM, a TGI (SF-268 CNS) greater than 100 µM and a TGI (SF-295 CNS) greater than 100 µM. The TGI (SF-539 CNS) was greater than 100 µM, the TGI (SK-MEL-2 melanoma) was greater than 100 µM and the TGI (SK-MEL-28 melanoma) was greater than 100 µM. The TGI (SK-MEL-5 melanoma) was greater than 100 µM, the TGI (SK-OV-3 ovarian) was greater than 100 µM and the TGI (SN12C renal) was greater than 100 µM. The TGI (SNB-19 CNS) was greater than 100 µM, the TGI (SR leukemia) was greater than 100 µM and the TGI (SW-620 colon) was greater than 100 µM. It also gave a TGI (T-47D breast) greater than 100 µM, a TGI (TK-10 renal) greater than 100 µM and a TGI (U251 CNS) greater than 100 µM. For the same compound, the TGI (UACC-257 melanoma) was greater than 100 µM and the TGI (UACC-62 melanoma) was greater than 100 µM.
`C=C(CCOC)CCC1CCCCC/C1=N\N(C)C` (configuration not stated) was tested, and the TGI (786-0 renal) was greater than 100 µM, the TGI (A498 renal) was greater than 100 µM and the TGI (A549 NSCLC) was greater than 100 µM. It also gave a TGI (ACHN renal) greater than 100 µM, a TGI (BT-549 breast) greater than 100 µM and a TGI (CAKI-1 renal) greater than 100 µM. The TGI (CCRF-CEM leukemia) was greater than 100 µM, the TGI (COLO 205 colon) was greater than 100 µM and the TGI (DU-145 prostate) was greater than 100 µM. The TGI (EKVX NSCLC) was greater than 100 µM, the TGI (HCC-2998 colon) was greater than 100 µM and the TGI (HCT-116 colon) was greater than 100 µM. It also gave a TGI (HCT-15 colon) greater than 100 µM, a TGI (HL-60(TB) leukemia) greater than 100 µM and a TGI (HOP-62 NSCLC) greater than 100 µM. It also gave a TGI (HS 578T breast) greater than 100 µM, a TGI (HT29 colon) greater than 100 µM and a TGI (IGROV1 ovarian) greater than 100 µM. For the same compound, the TGI (K-562 leukemia) was greater than 100 µM, the TGI (KM12 colon) was greater than 100 µM and the TGI (LOX IMVI melanoma) was greater than 100 µM. It also gave a TGI (M14 melanoma) greater than 100 µM, a TGI (MALME-3M melanoma) greater than 100 µM and a TGI (MCF7 breast) greater than 100 µM. It also gave a TGI (MDA-MB-231 breast) greater than 100 µM, a TGI (MDA-MB-435) greater than 100 µM and a TGI (MDA-N) greater than 100 µM. It also gave a TGI (MOLT-4 leukemia) greater than 100 µM, a TGI (NCI-H226 lung) greater than 100 µM and a TGI (NCI-H23 lung) greater than 100 µM. For the same compound, the TGI (NCI-H460 lung) was greater than 100 µM, the TGI (NCI-H522 lung) was greater than 100 µM and the TGI (NCI/ADR-RES ovarian) was greater than 100 µM. For the same compound, the TGI (OVCAR-3 ovarian) was greater than 100 µM, the TGI (OVCAR-4 ovarian) was greater than 100 µM and the TGI (OVCAR-5 ovarian) was greater than 100 µM. It also gave a TGI (OVCAR-8 ovarian) greater than 100 µM, a TGI (PC-3 prostate) greater than 100 µM and a TGI (RPMI-8226 leukemia) greater than 100 µM. It also gave a TGI (RXF 393 renal) greater than 100 µM, a TGI (SF-268 CNS) greater than 100 µM and a TGI (SF-295 CNS) greater than 100 µM. The TGI (SK-MEL-2 melanoma) was greater than 100 µM, the TGI (SK-MEL-28 melanoma) was greater than 100 µM and the TGI (SK-MEL-5 melanoma) was greater than 100 µM. It also gave a TGI (SK-OV-3 ovarian) greater than 100 µM, a TGI (SN12C renal) greater than 100 µM and a TGI (SNB-19 CNS) greater than 100 µM. The TGI (SNB-75 CNS) was greater than 100 µM, the TGI (SR leukemia) was greater than 100 µM and the TGI (SW-620 colon) was greater than 100 µM. For the same compound, the TGI (T-47D breast) was greater than 100 µM, the TGI (U251 CNS) was greater than 100 µM and the TGI (UACC-62 melanoma) was greater than 100 µM. For the same compound, the TGI (UO-31 renal) was greater than 100 µM.
